Read-outs that look alike come from different tables or passages of the source.
Experiments:
SU-DHL-10 = assay: CellTiter-Glo cell viability, SU-DHL-10; assay type: cell-based; conditions: Homo sapiens, SU-DHL10
Experimental: (§1) Human DLBCL cell lines SU-DHL-4 (#ACC 495) and SU-DHL-10 (#ACC 576) were obtained from DSMZ (German Collection of Microorganisms and Cell Cultures). The supplier used PCR-based DNA profiling of polymorphic short tandem repeats for authentication and Mycoplasma testing prior to shipment. Cells were cultured in suspension at 37°C in a humidified atmosphere containing 5% CO2. CDK9 inhibitors KB-0742 (MedChemExpress, #HY-137478A), enitociclib, and atuveciclib ([…] Pharma, Inc.) were used. A subset of 35 lymphoma cell lines is from a 500-cell line panel where the effect of enitociclib on cell viability using CellTiter-Glo luminescent cell viability was determined (OmniScreen, CrownBioscience). Genetic status and gene expression level for MYC and MCL1 was obtained from CrownBioscience.

[1] = system: panel of 35 human lymphoma cell lines; assay: CellTiter-Glo cell viability, lymphoma cell line panel (OmniScreen); assay type: cell-based
Experimental: as §1

## COc1cc(F)ccc1-c1cc(Nc2cc(CS(C)(=N)=O)ccn2)ncc1F (stereo not drawn) [enitociclib]
SU-DHL-10
  IC50: 74 nM
[1]; Homo sapiens, lymphoma cell lines, media fu = 66.6%, read-out: mean unbound IC50 for cytotoxicity
  IC50: ~67 nM
[1]; range over panel of 35 human lymphoma cell lines, read-out: IC50 (cell cytotoxicity)
  IC50: 43 to 152 nM

Reference: article PMC10634346 (Cancer Research Communications, 2023)
